Results from patent US20260108546A1 (ELI LILLY AND COMPANY, priority 2024, published 2026).
Where a name gives a salt, the structure may show the parent alone.

Molecular target: T1, hGIP-R (Homo sapiens, UniProt P48546)
T1 construct: expressed in transfected cells; host or cells: HEK-293 clonal cell lines
T1 sequence (P48546 22-466): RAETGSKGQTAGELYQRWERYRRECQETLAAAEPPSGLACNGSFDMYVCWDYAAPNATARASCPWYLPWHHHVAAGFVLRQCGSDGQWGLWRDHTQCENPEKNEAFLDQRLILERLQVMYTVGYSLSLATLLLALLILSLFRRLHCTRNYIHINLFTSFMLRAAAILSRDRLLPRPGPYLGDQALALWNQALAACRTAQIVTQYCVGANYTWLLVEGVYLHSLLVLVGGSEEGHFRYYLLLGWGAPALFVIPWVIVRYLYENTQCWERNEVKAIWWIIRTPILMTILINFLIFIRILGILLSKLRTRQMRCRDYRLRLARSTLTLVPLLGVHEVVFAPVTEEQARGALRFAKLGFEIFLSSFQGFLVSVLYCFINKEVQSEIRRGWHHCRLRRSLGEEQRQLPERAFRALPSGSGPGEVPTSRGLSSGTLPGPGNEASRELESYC
Assay: Functional hGIP-R Assay (cAMP formation, HTRF)
Type: cell-based
Details: for Emax: cAMP efficacy, percent of maximal response to GIP(1-42)OH, 37° C., 0.1% bovine casein, arithmetic mean ± SEM; for EC50: cAMP potency, HEK-293 cells expressing hGIP-R, incubated at 37° C. in the presence of 0.1% bovine casein, geometric mean, read-out: Human GIP-R EC50, nM (SEM, n)
Procedure, shortened: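 Relative EC50 and Emax came from four-parameter logistic fits of cAMP as a percent of the human GIP (1-42) OH maximal response. The cAMP was measured by competitive HTRF after 30 min, 37 °C compound exposure of hGIP-R HEK-293 clones in IBMX (250 μM)-containing medium.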

`[2H]C([2H])([2H])N(C(=O)C1CC1(C)c1ccc(-c2cnc3nn(C)cc3c2)cc1F)[C@H](Cc1cnn(C(F)F)c1)C(=O)NC(C)(C)Cn1nc(C(F)(F)F)cc1-c1cc(F)c(=O)n(C)c1` (single isomer, unassigned; isomer 1) [Example 140] was tested, and the Emax was 84.8 ± 5.99% and the EC50 was 51.7 nM.
For `Cc1nc(-c2cnc3nc(C4CC4)cn3c2)ccc1[C@H]1C[C@@]12CCN([C@H](Cc1cnn(C(F)F)c1)C(=O)NC(C)(C)Cn1nc(C(F)(F)F)cc1-c1cc(F)c(=O)n(C)c1)C2=O` [Example 170, (R)-2-((1R,3R)-1-(6-(2-cyclopropylimidazo[1,2-a]pyrimidin-6-yl)-2-methylpyridin-3-yl)-4-oxo-5-azaspiro[2.4]heptan-5-yl)-3-(1-(difluoromethyl)-1H-pyrazol-4-yl)-N-(1-(5-(5-fluoro-1-methyl-6-oxo-1,6-dihydropyridin-3-yl)-3-(trifluoromethyl)-1H-pyrazol-1-yl)-2-methylpropan-2-yl)propanamide], the Emax was 97.2 ± 0.998% and the EC50 was 0.846 nM.
For `Cc1cn2cc(-c3ccc(C4CC45CCN([C@H](Cc4cnn(C(F)F)c4)C(=O)NC(C)(C)Cn4nc(C(F)(F)F)cc4-c4cc(F)c(=O)n(C)c4)C5=O)c(C(F)F)c3)cnc2n1` (single isomer, unassigned; isomer 1) [Example 108], the Emax was 81.7 ± 1.63% and the EC50 was 0.47 nM.
With `Cn1cc(C[C@@H](NC(=O)[C@H]2C[C@@H]2c2ccc(-c3cnc4nn(C)cc4c3)cc2)C(=O)NC(C)(C)Cn2nc(C(F)(F)F)cc2-c2ccc(=O)n(C)c2)cn1` [Example 19, (1S,2S)-N-((R)-1-((2-Methyl-1-(5-(1-methyl-6-oxo-1,6-dihydropyridin-3-yl)-3-(trifluoromethyl)-1H-pyrazol-1-yl)propan-2-yl)amino)-3-(1-methyl-1H-pyrazol-4-yl)-1-oxopropan-2-yl)-2-(4-(2-methyl-2H-pyrazolo[3,4-b]pyridin-5-yl)phenyl) cyclopropane-1-carboxamide] the Emax was 123 ± 1.72% and the EC50 was 66.9 nM.
For `Cc1nc(-c2cnc3nc(C4CC4)cn3c2)ccc1[C@H]1C[C@@]12CCN([C@H](Cc1cnn(C(F)F)c1)C(=O)NC(C)(C)Cn1nc(C(F)(F)F)cc1-c1cnc(C(C)(C)OP(=O)(O)O)nc1)C2=O` [Example 196, 2-(5-(1-(2-((R)-2-((1R,3R)-1-(6-(2-Cyclopropylimidazo[1,2-a]pyrimidin-6-yl)-2-methylpyridin-3-yl)-4-oxo-5-azaspiro[2.4]heptan-5-yl)-3-(1-(difluoromethyl)-1H-pyrazol-4-yl)propanamido)-2-methylpropyl)-3-(trifluoromethyl)-1H-pyrazol-5-yl)pyrimidin-2-yl)propan-2-yl dihydrogen phosphate, ammonia salt], the Emax was 95.7% and the EC50 was 0.601 nM.
`[2H]C([2H])([2H])n1cc(C[C@H](C(=O)NC(C)(C)Cn2nc(C(F)(F)F)cc2-c2cnc(C)nc2)N2CC[C@@]3(C[C@@H]3c3ccc(-c4cnc5nn(C)cc5c4)cc3Cl)C2=O)cn1` (single isomer, unassigned; isomer 1) [Example 114] was tested, and the Emax was 80.3 ± 0.191% and the EC50 was 1.79 nM.
`CC(C)(Cn1cc(C(F)(F)F)cn1)NC(=O)[C@@H](Cc1cnc2ncccn12)NC(=O)[C@H]1C[C@@H]1c1ccc(-c2cnc3nc(C4(C)CC4)cn3c2)cc1` [Example 81, (1S,2S)-N-((R)-3-(Imidazo[1,2-a]pyrimidin-3-yl)-1-((2-methyl-1-(4-(trifluoromethyl)-1H-pyrazol-1-yl)propan-2-yl)amino)-1-oxopropan-2-yl)-2-(4-(2-(1-methylcyclopropyl)imidazo[1,2-a]pyrimidin-6-yl)phenyl)cyclopropane-1-carboxamide] gave an Emax of 117 ± 0.667% and an EC50 of 33.1 nM.
`CC(C)(Cc1ccc(F)cc1)NC(=O)[C@@H](Cc1cnc2ncccn12)NC(=O)[C@H]1C[C@@H]1c1ccc(-c2cnc3nccn3c2)cc1` [Example 87, (1S,2S)-N-((R)-1-((1-(4-Fluorophenyl)-2-methylpropan-2-yl)amino)-3-(imidazo[1,2-a]pyrimidin-3-yl)-1-oxopropan-2-yl)-2-(4-(imidazo[1,2-a]pyrimidin-6-yl)phenyl)cyclopropane-1-carboxamide] showed an Emax of 71.1 ± 9.09% and an EC50 of 52.7 nM.
With `Cn1cc2cc(-c3ccc([C@H]4C[C@@H]4C(=O)N[C@H](Cc4cnn(C(F)F)c4)C(=O)NC(C)(C)Cn4nc(C(F)(F)F)cc4-c4cn[nH]n4)cc3)cnc2n1` [Example 43, (1S,2S)-N-((R)-1-((1-(5-(2H-1,2,3-Triazol-4-yl)-3-(trifluoromethyl)-1H-pyrazol-1-yl)-2-methylpropan-2-yl)amino)-3-(1-(difluoromethyl)-1H-pyrazol-4-yl)-1-oxopropan-2-yl)-2-(4-(2-methyl-2H-pyrazolo[3,4-b]pyridin-5-yl)phenyl)cyclopropane-1-carboxamide] the Emax was 116 ± 4.26% and the EC50 was 61.1 nM.
`COCn1ncc(-c2cc(C(F)(F)F)nn2CC(C)(C)NC(=O)[C@@H](Cc2cnn(C)c2)NC(=O)[C@H]2C[C@@H]2c2ccc(-c3cnc4nn(C)cc4c3)cc2)n1` [Example 65, (1S,2S)-N—((R)-1-((1-(5-(2-(Methoxymethyl)-2H-1,2,3-triazol-4-yl)-3-(trifluoromethyl)-1H-pyrazol-1-yl)-2-methylpropan-2-yl)amino)-3-(1-methyl-1H-pyrazol-4-yl)-1-oxopropan-2-yl)-2-(4-(2-methyl-2H-pyrazolo[3,4-b]pyridin-5-yl)phenyl)cyclopropane-1-carboxamide] gave an Emax of 113 ± 4.23% and an EC50 of 38.1 nM.
Work on `Cn1cc2cc(-c3ccc([C@H]4C[C@@]45CCN([C@H](Cc4cnn(C(F)F)c4)C(=O)NC(C)(C)Cn4nc(C(F)(F)F)cc4-c4cn(C)c(=O)c6ccccc46)C5=O)cc3)cnc2n1` [Example 129, (R)-3-(1-(Difluoromethyl)-1H-pyrazol-4-yl)-N-(2-methyl-1-(5-(2-methyl-1-oxo-1,2-dihydroisoquinolin-4-yl)-3-(trifluoromethyl)-1H-pyrazol-1-yl)propan-2-yl)-2-((1R,3R)-1-(4-(2-methyl-2H-pyrazolo[3,4-b]pyridin-5-yl)phenyl)-4-oxo-5-azaspiro[2.4]heptan-5-yl)propanamide] yielded an Emax of 78.6 ± 6.28% and an EC50 of 138 nM.
Work on `Cc1nc(-c2cnc3nc(C4CC4)cn3c2)ccc1[C@H]1C[C@@]12CCN([C@H](Cc1cnn(C(F)F)c1)C(=O)NC(C)(C)Cn1nc(C(F)(F)F)cc1-c1cnc(C(C)(C)O)nc1)C2=O` [Example 158, (R)-2-((1R,3R)-1-(6-(2-cyclopropylimidazo[1,2-a]pyrimidin-6-yl)-2-methylpyridin-3-yl)-4-oxo-5-azaspiro[2.4]heptan-5-yl)-3-(1-(difluoromethyl)-1H-pyrazol-4-yl)-N-(1-(5-(2-(2-hydroxypropan-2-yl)pyrimidin-5-yl)-3-(trifluoromethyl)-1H-pyrazol-1-yl)-2-methylpropan-2-yl)propanamide] yielded an Emax of 102 ± 1.41% and an EC50 of 1.23 nM.
Compound `CC(C)(Cn1nc(C(F)(F)F)cc1-c1cn[nH]n1)NC(=O)[C@@H](Cc1cnc2ncccn12)NC(=O)[C@H]1C[C@@H]1c1ccc(-c2cnc3nc(C(F)(F)F)cn3c2)cc1` [Example 68, (1S,2S)-N—((R)-1-((1-(5-(2H-1,2,3-Triazol-4-yl)-3-(trifluoromethyl)-1H-pyrazol-1-yl)-2-methylpropan-2-yl)amino)-3-(imidazo[1,2-a]pyrimidin-3-yl)-1-oxopropan-2-yl)-2-(4-(2-(trifluoromethyl)imidazo[1,2-a]pyrimidin-6-yl)phenyl)cyclopropane-1-carboxamide] has an Emax of 86.9 ± 7.93% and an EC50 of 0.904 nM.
Compound `Cn1cc(C[C@@H](NC(=O)[C@H]2C[C@@H]2c2ccc(-c3cnc4nn(C)cc4c3)nc2C(F)(F)F)C(=O)NC(C)(C)Cn2cc(C(F)(F)F)cn2)cn1` [Example 22, (1S,2S)-N-((R)-1-((2-Methyl-1-(4-(trifluoromethyl)-1H-pyrazol-1-yl)propan-2-yl)amino)-3-(1-methyl-1H-pyrazol-4-yl)-1-oxopropan-2-yl)-2-(6-(2-methyl-2H-pyrazolo[3,4-b]pyridin-5-yl)-2-(trifluoromethyl)pyridin-3-yl)cyclopropane-1-carboxamide] has an Emax of 109 ± 11.6% and an EC50 of 61.3 nM.
In the case of `[2H]C([2H])([2H])n1cc(C[C@H](C(=O)NC(C)(C)Cn2nc(C(F)(F)F)cc2-c2cnc(C(C)(C)O)nc2)N2CC[C@@]3(C[C@@H]3c3ccc(-c4cnc5nc(C6CC6)cn5c4)nc3C)C2=O)cn1` [Example 186, (R)-2-((1R,3R)-1-(6-(2-cyclopropylimidazo[1,2-a]pyrimidin-6-yl)-2-methylpyridin-3-yl)-4-oxo-5-azaspiro[2.4]heptan-5-yl)-N-(1-(5-(2-(2-hydroxypropan-2-yl)pyrimidin-5-yl)-3-(trifluoromethyl)-1H-pyrazol-1-yl)-2-methylpropan-2-yl)-3-(1-(methyl-d3)-1H-pyrazol-4-yl)propanamide], the Emax is reported as 104 ± 0.548% and the EC50 is reported as 1.75 nM.
